Experimental data taken from patent US8980881B2, “Crystalline forms of (R)-8-chloro-1-methyl-2,3,4,5-tetrahydro-1H-3-benzazepine hydrochloride” (priority 2004, dated 2015).
Entries after “also recorded” stand apart in the source; their conditions may differ. Where a name gives a salt, the structure may show the parent alone.

Assays:
[1] = Dynamic vapor sorption (DVS) scan, with XRPD after the cycle; type: physicochemical; details: for crystalline form after DVS cycle: XRPD after the DVS cycle; for moisture adsorbed: between about 40 and about 80% RH, calculated from DVS; for DVS: adsorbs (moisture) / DVS: adsorption transition at / DVS: deliquescent above / DVS: hygroscopicity: dynamic vapor sorption
Text: FIG. 4 depicts a dynamic vapor sorption (DVS) scan for crystalline Form I of the invention (VTI dynamic vapor desorption analyzer).
FIG. 8 depicts a dynamic vapor sorption (DVS) scan for crystalline Form II of the invention (VTI dynamic vapor desorption analyzer).
FIG. 12 depicts a dynamic vapor sorption (DVS) scan for crystalline Form III of the invention.
The various crystalline forms of (R)-8-chloro-1-methyl-2,3,4,5-tetrahydro-1H-3-benzazepine hydrochloride can be identified by their unique solid state signatures with respect to, for example, differential scanning calorimetry (DSC), X-ray powder diffraction (XRPD), and other solid state methods. Further characterization with respect to water or solvent content of the crystalline forms can be gauged by any of various routine methods such as thermogravimetric analysis (TGA), dynamic vapor sorption (DVS), DSC and other techniques. For DSC, it is known that the temperatures observed will depend upon the rate of temperature change as well as sample preparation technique and the particular instrument employed. Thus, the values reported herein relating to DSC thermograms can vary by plus or minus about 4° C. For XRPD, the relative intensities of the peaks can vary, depending upon the sample preparation technique, the sample mounting procedure and the particular instrument employed. Moreover, instrument variation and other factors can often affect the 2-theta values. Therefore, the peak assignments of diffraction patterns can vary by plus or minus about 0.2°.
XRPD carried out on both Forms I and II after the DVS cycle confirmed this conversion.

[2] = Heat stability of crystalline form, XRPD analysis after heating; type: physicochemical
Protocol: A sample of Form I was heated to 160° C. in a TGA furnace for about 15 min when heated at a rate of about 10° C./min.
A sample of Form III was heated to 60° C. for at least 2 hours.
A sample of Form III was heated to 60° C. for one day.
A sample of Form III was heated to 80° C. for 30 minutes.
A sample of Form III was heated to 80° C. for 1 day.

Row | SMILES | crystalline form after DVS cycle ([1]; hydrochloride) | moisture adsorbed [1] | DVS: adsorbs (moisture) [1] | DVS: adsorption transition at ([1]; hydrochloride) | DVS: deliquescent above ([1]; hydrochloride) | DVS: hygroscopicity ([1]; hydrochloride) | conversion upon exposure to moisture [1] | crystal form after heating (XRPD) ([2]; heated to 160° C. in a TGA furnace for about 15 min, about 10° C./min) | crystalline form after DVS cycle ([1]; hydrochloride Hemihydrate) | DVS: adsorption at 90% RH ([1]; at 90% RH) | water adsorbed ([1]; at 90% RH) | DVS: deliquescent above ([1]; hydrochloride Hemihydrate) | DVS: hygroscopicity ([1]; hydrochloride Hemihydrate) | crystal form after heating (XRPD) ([2]; heated to 60° C. for at least 2 hours) | crystal form after heating (XRPD) ([2]; heated to 60° C. for one day) | crystal form after heating (XRPD) ([2]; heated to 80° C. for 30 minutes) | crystal form after heating (XRPD) ([2]; heated to 80° C. for 1 day)
1 | C[C@H]1CNCCc2ccc(Cl)cc21 [Form I, (R)-8-chloro-1-methyl-2,3,4,5-tetrahydro-1H-3-benzazepine hydrochloride] | conversion to the hemihydrate (Form III); also recorded: crystalline form changes | about 3.8 wt % | adsorbs about 3.8 wt %; | about 60% RH; | deliquescent above 90% RH | hygroscopic; also recorded: hygroscopic; | readily convert to Form III | no change in crystal form | – | – | – | – | – | – | – | – | –
2 | C[C@H]1CNCCc2ccc(Cl)cc21 [Form II, (R)-8-chloro-1-methyl-2,3,4,5-tetrahydro-1H-3-benzazepine hydrochloride] | conversion to the hemihydrate (Form III); also recorded: crystalline form changes | about 3.8 wt % | adsorbs about 3.8 wt %; | about 40% RH; | deliquescent above 90% RH | hygroscopic; also recorded: hygroscopic; | readily convert to Form III | – | – | – | – | – | – | – | – | – | –
3 | C[C@H]1CNCCc2ccc(Cl)cc21 [Form III, (R)-8-chloro-1-methyl-2,3,4,5-tetrahydro-1H-3-benzazepine hydrochloride Hemihydrate] | – | – | – | – | – | – | – | – | no change in crystalline form | adsorption of less than 0.5% | less than 0.5 wt % | deliquescent above 95% RH; | substantially non-hygroscopic | substantially no change in crystal form | partial conversion to Form I | partial conversion to Form I | partial conversion to Form I
